Results from ChEMBL document CHEMBL1201862, “PubChem BioAssay data set” (2004).
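96-well plates; 48 h exposure; 5 concentrations. Endpoints by linear interpolation between flanking doses. Not reached: highest tested concentration assigned. GI50: concentration for 50% inhibition of growth.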 Activity calls are given as the source filed them. No stated cut-off is given here; in the data, active = GI50 up to about 1.1 µM and inactive = higher.

Experiments:
Assay in all cases: inhibition of tumour cell growth, NCI panel, 48 h
[1] = tested on: COLO 205
[2] = tested on: MOLT-4
[3] = tested on: DU-145
[4] = tested on: HOP-62
[5] = tested on: TK-10
[6] = tested on: A498
[7] = tested on: KM12
[8] = tested on: NCI-H460
[9] = tested on: SK-OV-3
[10] = tested on: OVCAR-5
[11] = tested on: CAKI-1
[12] = tested on: IGROV-1
[13] = tested on: 786-0
[14] = tested on: UO-31
[15] = tested on: BT-549
[16] = tested on: MCF7
[17] = tested on: OVCAR-4
[18] = tested on: MDA-N
[19] = tested on: NCI-H522
[20] = tested on: M14
[21] = tested on: PC-3
[22] = tested on: HCT-15
[23] = tested on: SW-620
[24] = tested on: SK-MEL-5
[25] = tested on: ACHN
[26] = tested on: MDA-MB-435
[27] = tested on: HCC 2998
[28] = tested on: RXF 393
[29] = tested on: MDA-MB-231
[30] = tested on: OVCAR-8
[31] = tested on: Malme-3M
[32] = tested on: UACC-257
[33] = tested on: SNB-75
[34] = tested on: SK-MEL-28
[35] = tested on: U-251
[36] = tested on: SNB-19
[37] = tested on: NCI-H23
[38] = tested on: HCT-116
[39] = tested on: SF-268
[40] = tested on: T47D
[41] = tested on: HT-29
[42] = tested on: HOP-92
[43] = tested on: SF-295
[44] = tested on: OVCAR-3
[45] = tested on: Hs-578T
[46] = tested on: RPMI-8226
[47] = tested on: NCI/ADR-RES
[48] = tested on: EKVX
[49] = tested on: K562
[50] = tested on: A549
[51] = tested on: UACC-62
[52] = tested on: SK-MEL-2

C/C(N)=C/C(=O)c1[nH]c(C(=O)O)cc1C1CCN(Cc2ccccc2)C1=O (configuration not stated)
GI50 [1]: 23.9 µM (inactive)
GI50 [2]: 24.4 µM (inactive)
GI50 [3]: 22.1 µM (inactive)
GI50 [4]: 18.4 µM (inactive)
GI50 [5]: 38.5 µM (inactive)
GI50 [6]: 65.3 µM (inactive)
GI50 [7]: 31.9 µM (inactive)
GI50 [8]: 29.4 µM (inactive)
GI50 [9]: 28.6 µM (inactive)
GI50 [10]: 30.2 µM (inactive)
GI50 [11]: 40.8 µM (inactive)
GI50 [12]: 27.2 µM (inactive)
GI50 [13]: 26.7 µM (inactive)
GI50 [14]: 23.2 µM (inactive)
GI50 [15]: 31.8 µM (inactive)
GI50 [16]: 24.2 µM (inactive)
GI50 [17]: 47.8 µM (inactive)
GI50 [18]: 23.7 µM (inactive)
GI50 [19]: 20.6 µM (inactive)
GI50 [20]: 18.8 µM (inactive)
GI50 [21]: 37.6 µM (inactive)
GI50 [22]: 29.9 µM
GI50 [23]: 46.1 µM (inactive)
GI50 [24]: 15.3 µM (inactive)
GI50 [25]: 30 µM (inactive)
GI50 [26]: 40.6 µM (inactive)
GI50 [27]: 52.7 µM (inactive)
GI50 [28]: 18.5 µM (inactive)
GI50 [29]: 41.1 µM (inactive)
GI50 [30]: 21.8 µM (inactive)
GI50 [31]: 18.8 µM (inactive)
GI50 [32]: 28.6 µM (inactive)
GI50 [33]: 23.1 µM (inactive)
GI50 [34]: 24.3 µM (inactive)
GI50 [35]: 39.6 µM (inactive)
GI50 [36]: 33.4 µM (inactive)
GI50 [37]: 22.8 µM (inactive)
GI50 [38]: 22.2 µM (inactive)
GI50 [39]: 22.3 µM (inactive)
GI50 [40]: 22.8 µM (inactive)
GI50 [41]: 31.8 µM (inactive)
GI50 [42]: 17 µM (inactive)
GI50 [43]: 21.3 µM (inactive)
GI50 [44]: 20.6 µM (inactive)
GI50 [45]: 27.9 µM (inactive)
GI50 [46]: 19.6 µM (inactive)
GI50 [47]: 19.9 µM (inactive)
GI50 [48]: 30.1 µM (inactive)
GI50 [49]: 20.8 µM (inactive)
GI50 [50]: 34.4 µM (inactive)
GI50 [51]: 22.3 µM (inactive)
GI50 [52]: 28.9 µM (inactive)
